The values that follow are results of earlier work, collected in US20050004105A1, “Treatment for a attention-deficit hyperactivity disorder” (priority 2003, published 2005).

Each structure is given as a SMILES string. Counter-ions that a name gives are not always drawn.

One data set has as its target 5-HT1B/1D receptor. The conditions noted are these: [125I]iodocyanopindolol 0.15 nM in striatum; exemplary protocol; read-out: Ki of reference compound, 5-HT1B/1D binding assay; cited from earlier work.
A further data set concerns the target α1 receptor. The note with it: rat forebrain membranes, [3H]7-MeOxy-prazosin; exemplary protocol; read-out: Ki of reference compound, α1 binding assay; cited from earlier work.

Consider `NCCc1c[nH]c2ccc(O)cc12` [5-HT], for which the Ki at 5-HT1B/1D receptor is about 13.8 nM.

As to `Cc1ccc(N(CC2=NCCN2)c2cccc(O)c2)cc1` [phentolamine mesylate], at α1 receptor, the Ki was about 5.4 nM.
